Experimental data taken from US6476051B2, “Antipsychotic heterocycle compounds” (Bristol-Myers Squibb Company, priority 1999, dated 2002).
Like-named read-outs stand apart in the source and are kept apart here.

Key:
[1] = molecular target: T1, recombinant human dopamine D2L receptors (Homo sapiens, UniProt P14416); test: Dopamine binding protocol ([3H]-spiperone binding, HEK-D2L cell membranes)
T1 construct: expressed in transfected cells; host or cells: HEK-293 (HEK-D2L cells), membrane homogenates
Method: Like many clinically effective antipsychotic agents, the compounds of Formula I also are antagonists at the human D2L receptor as determined by [^3H]-spiperone binding studies using human D2L receptors stably expressed in HEK-293 cells.
HEK-293 cells that stably express recombinant human dopamine D2L receptors (HEK-D2L cells) were grown at 37° C. in 5% CO2 as a monolayer in medium consisting of EMEM supplemented with 10% fetal bovine serum and G418 sulfate (500 μg/ml). To prepare membranes for radioligand binding experiments, cells were rinsed twice with phosphate-buffered saline (138 mM NaCl, 4.1 mM KCl, 5.1 mM Na2PO4, 1.5 mM […] 11.1 mM glucose, pH 7.4), and incubated for 5-10 min. at 4° C. in hypotonic lysis buffer consisting of 10 mM Tris (pH 7.4) and 5 mM EDTA. Cells were transferred from plates to polypropylene tubes (16×100 mm), homogenized and centrifuged at 32,000×g for 20 min. Following centrifugation, pellets were resuspended by homogenization in buffer consisting of 50 mM Tris (pH 7.7 at 25° C.) and 1 mM EDTA. Homogenates were stored at −80° C. until needed. On the day of an experiment, homogenates were thawed then centrifuged at 32,000×g for 20 min. Following centrifugation, supernatants were discarded and pellets were resuspended in assay buffer consisting of 50 mM Tris (pH 7.4 at 25° C.), 1 mM EDTA and 6 mM MgCl2. Membrane homogenates (˜5 μg) were incubated with 150 pM [^3H]-spiperone (Amersham Life Science) and increasing concentrations of test compounds for 1.5 hours at 22° C. in a total volume of 400 μl. Reactions were stopped by addition of ice-cold assay buffer and filtration over glass fiber filters (Whatman GFB, pre-soaked in 0.05% polyethylenimine) using a microtitre format Brandel cell harvester. Filters were washed with 3 ml of ice-cold assay buffer. Non-specific binding was defined with 2 μM (+)butaclamol. Ki values were calculated using the method of Cheng and Prusoff (1973). Protein concentrations were determined by the method of Bradford (1976) with BSA as a standard.
Test data IC50 values lower than 250 nM are considered to reflect affinity for dopamine D2L receptors.

[2] = molecular target: T2, human serotonin transporters (Homo sapiens, UniProt P31645); test: Serotonin transporter binding assay ([3H]-citalopram binding, HEK-hSERT cell membranes)
T2 construct: expressed in transfected cells; host or cells: HEK-293 (HEK-hSERT cells), membrane homogenates
From the text: The compounds of Formula I bind potently to the human 5-HT transporter and inhibit the re-uptake of endogenous serotonin. Selective serotonin reuptake inhibitors (SSRIs) are effective for the treatment of mental depression and have been reported to be useful for treating chronic pain (see: R. W. Fuller, Pharmacologic Modification of Serotonergic Function: Drugs for the Study and Treatment of Psychiatric and Other Disorders,” J. Clin. Psychiatry, 47:4 (Suppl.) April 1986, pp. 4-8). Compounds of the present invention are also envisioned to be useful for treating psychosis, acute mania, mild anxiety states or depression with secondary psychotic episodes. The present compounds are also envisioned to be useful in treating obsessive-compulsive disorders, feeding disorders, anxiety disorders and panic disorders.
HEK-293 cells that stably express human serotonin transporters (HEK-hSERT cells) were grown at 37° C. in 5% CO2 as a monolayer in medium consisting of EMEM supplemented with 10% fetal bovine serum and G418 sulfate (500 μg/ml). To prepare membranes for radioligand binding experiments, cells were rinsed twice with phosphate-buffered saline (138 mM NaCl, 4.1 mM KCl, 5.1 mM Na2PO4, 1.5 mM […], 11.1 mM glucose, pH 7.4). Cells were transferred from plates to polypropylene tubes (16×100 mm), centrifuged at 1,200×g for 5 min and were frozen at −80° C. until assay. Following centrifugation, pellets were resuspended by homogenization in buffer consisting of 50 mM Tris (pH 7.7 at 25° C.), 120 mM NaCl and 5 mM KCl and then centrifuged at 32,000×g for 10 min. Following centrifugation, supernatants were discarded and pellets were resuspended in buffer consisting of 50 mM Tris (pH 7.4 at 25° C.), 150 mM NaCl and 5 mM KCl. Membrane homogenates (200 μl/plate) were incubated with 1 nM [^3H]-citalopram (specific activity=85 Ci/mmol) and increasing concentrations of test compounds for 1 hour at 25° C. in a total volume of 250 μl. The assay buffer consisted of 50 mM Tris (pH 7.4 at 25° C.), 120 mM NaCl and 5 mM KCl (pH 7.4 with conc. HCl). Plates were incubated for 1 hour at 25° C., then filtered through 0.5% PEI treated Whatman GF/B filters using a Brandel cell harvester. Filters were washed three times with 3 ml of ice-cold tris wash buffer. Non-specific binding was defined with 10 μM fluoxetine. Amount of radioligand bound in the presence and absence of competitor was analyzed by plotting (−)log drug concentration versus the amount of radioligand specifically bound. The midpoint of the displacement curve (IC50, nM), signifies the potency. Ki values were calculated using the method of Cheng and Prusoff (1973).
Substances which inhibit the re-uptake of serotonin are recognized to be effective antidepressants (Selective Serotonin Reuptake Inhibitors. Edited by J P Feighner and W F Boyer, Chichester, England. John Wiley & Sons, 1991, pp 89-108). Test data IC50 values lower than 250 nM are considered to reflect activity as an inhibitor of serotonin re-uptake.

[3] = [3H]-spiperone, HEK-D2L membranes, read-out: dopamine D2L ligands with Ki
[4] = [3H]-citalopram, HEK-hSERT membranes, read-out: inhibit the re-uptake of serotonin with Ki

T2 sequence (P31645 whole entry): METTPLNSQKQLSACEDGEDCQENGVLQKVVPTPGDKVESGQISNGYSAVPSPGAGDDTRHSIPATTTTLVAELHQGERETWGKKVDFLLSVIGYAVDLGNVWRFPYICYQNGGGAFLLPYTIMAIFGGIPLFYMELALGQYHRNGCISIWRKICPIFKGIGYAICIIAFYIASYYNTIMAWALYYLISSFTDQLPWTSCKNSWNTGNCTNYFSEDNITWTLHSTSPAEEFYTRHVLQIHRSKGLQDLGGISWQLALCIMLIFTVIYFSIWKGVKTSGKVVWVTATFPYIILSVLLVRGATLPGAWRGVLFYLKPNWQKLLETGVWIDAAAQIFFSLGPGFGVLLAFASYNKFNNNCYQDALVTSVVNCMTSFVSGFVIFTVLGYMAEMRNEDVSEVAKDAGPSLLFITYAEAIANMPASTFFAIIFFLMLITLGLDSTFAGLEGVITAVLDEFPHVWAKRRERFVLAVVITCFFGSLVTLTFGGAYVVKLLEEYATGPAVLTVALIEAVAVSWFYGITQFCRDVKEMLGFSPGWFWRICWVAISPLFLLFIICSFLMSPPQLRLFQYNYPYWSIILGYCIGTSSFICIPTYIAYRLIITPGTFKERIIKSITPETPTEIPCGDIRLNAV
T1 sequence (P14416 whole entry): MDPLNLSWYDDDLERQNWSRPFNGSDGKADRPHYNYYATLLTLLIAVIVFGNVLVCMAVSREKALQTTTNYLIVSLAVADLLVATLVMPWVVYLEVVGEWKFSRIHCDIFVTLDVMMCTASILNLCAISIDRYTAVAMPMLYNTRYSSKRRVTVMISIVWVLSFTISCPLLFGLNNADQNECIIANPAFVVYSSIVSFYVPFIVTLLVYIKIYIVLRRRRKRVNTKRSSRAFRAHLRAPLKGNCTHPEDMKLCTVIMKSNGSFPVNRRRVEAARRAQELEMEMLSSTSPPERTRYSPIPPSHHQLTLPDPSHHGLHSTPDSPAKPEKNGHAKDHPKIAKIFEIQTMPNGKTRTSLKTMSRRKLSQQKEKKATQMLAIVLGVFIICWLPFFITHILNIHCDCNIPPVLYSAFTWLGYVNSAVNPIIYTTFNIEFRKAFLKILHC

Row | Structure (SMILES) | Ki [1, 3] [nM] | Ki [2, 4] [nM] | Ki [1] [nM] | Ki [2] [nM]
1 | N#Cc1ccc2[nH]cc(C3CCN(CCCOc4ccccc4)CC3)c2c1 [Example 4, 3-[1-(3-phenoxypropyl)-4-piperidinyl]-5-cyanoindole] | < 100 | < 100 | – | –
2 | N#Cc1ccc2[nH]cc(C3CCN(CCCOc4ccccc4F)CC3)c2c1 [Example 5, 3-{1-[3-(2-fluorophenoxy)propyl]-4-piperidinyl}-5-cyanoindole] | < 100 | < 100 | – | –
3 | N#Cc1ccc2[nH]cc(C3CCN(CCCOc4ccc(F)cc4)CC3)c2c1 [Example 6, 3-{1-[3-(4-fluorophenoxy)propyl]-4-piperidinyl}-5-cyanoindole] | < 100 | < 100 | – | –
4 | COc1ccccc1OCCCN1CCC(c2c[nH]c3ccc(C#N)cc23)CC1 [Example 7, 3-{1-[3-(2-methoxyphenoxy)propyl]-4-piperidinyl}-5-cyanoindole] | < 100 | < 100 | – | –
5 | COc1cccc(OCCCN2CCC(c3c[nH]c4ccc(C#N)cc34)CC2)c1 [Example 8, 3-{1-[3-(3-methoxyphenoxy)propyl]-4-piperidinyl}-5-cyanoindole] | < 100 | < 100 | – | –
6 | COc1ccc(OCCCN2CCC(c3c[nH]c4ccc(C#N)cc34)CC2)cc1 [Example 9, 3-{1-[3-(4-methoxyphenoxy)propyl]-4-piperidinyl}-5-cyanoindole] | < 100 | < 100 | – | –
7 | COc1ccc(OCCCN2CCC(c3c[nH]c4ccc(C#N)cc34)CC2)cc1OC [Example 10, 3-{1-[3-(3,4-dimethoxyphenoxy)propyl]-4-piperidinyl}-5-cyanoindole] | < 100 | < 100 | – | –
8 | Cc1nc2cc(OCCCN3CC=C(c4c[nH]c5cccc(F)c45)CC3)ccc2s1 [Example 11, 5-{3-[4-(4-fluoroindol-3-yl)-1,2,5,6-tetrahydropyrid-1-yl]propoxy}-2-methylbenzothiazole] | – | – | < 100 | < 100
9 | Cc1nc2cc(OCCCN3CC=C(c4c[nH]c5ccc(C#N)cc45)CC3)ccc2s1 [Example 12, 5-{3-[4-(5-cyanoindol-3-yl)-1,2,5,6-tetrahydropyrid-1-yl]propoxy}-2-methylbenzothiazole] | – | – | < 100 | < 100
10 | Cc1nc2cc(OCCCCN3CC=C(c4c[nH]c5cccc(F)c45)CC3)ccc2s1 [Example 13, 5-{4-[4-(4-fluoroindol-3-yl)1,2,5,6-tetrahydropyrid-1-yl]butoxy}-2-methylbenzothiazole] | – | – | < 100 | < 100
11 | Cc1nc2cc(OCCCCCN3CC=C(c4c[nH]c5cccc(F)c45)CC3)ccc2s1 [Example 14, 5-{5-[4-(4-fluoroindol-3-yl)-1,2,5,6-tetrahydropyrid-1-yl]pentoxy}-2-methylbenzothiazole] | – | – | < 100 | < 100
12 | Cc1nc2cc(OCCCCN3CC=C(c4c[nH]c5ccc(F)cc45)CC3)ccc2s1 [Example 15, 5-{4-[4-(5-fluoroindol-3-yl)1,2,5,6-tetrahydropyrid-1-yl]butoxy}-2-methylbenzothiazole] | – | – | < 100 | < 100
13 | Cc1nc2cc(OCCCCCN3CC=C(c4c[nH]c5ccc(F)cc45)CC3)ccc2s1 [Example 16, 5-{5-[4-(5-fluoroindol-3-yl)-1,2,5,6-tetrahydropyrid-1-yl]pentoxy}-2-methylbenzothiazole] | – | – | < 100 | < 100
14 | Cc1nc2cc(OCCCN3CC=C(c4c[nH]c5c(F)cccc45)CC3)ccc2s1 [Example 17, 5-{3-[4-(7-fluoroindol-3-yl)-1,2,5,6-tetrahydropyrid-1-yl]propoxy}-2-methylbenzothiazole] | – | – | < 100 | < 100
15 | Cc1nc2cc(OCCCCN3CC=C(c4c[nH]c5c(F)cccc45)CC3)ccc2s1 [Example 18, 5-{4-[4-(7-fluoroindol-3-yl)1,2,5,6-tetrahydropyrid-1-yl]butoxy}-2-methylbenzothiazole] | – | – | < 100 | < 100
16 | Cc1nc2cc(OCCCCCN3CC=C(c4c[nH]c5c(F)cccc45)CC3)ccc2s1 [Example 19, 5-{5-[4-(7-fluoroindol-3-yl)-1,2,5,6-tetrahydropyrid-1-yl]pentoxy}-2-methylbenzothiazole] | – | – | < 100 | < 100
17 | Cc1nc2cc(OCCCCN3CC=C(c4c[nH]c5ccc(Cl)cc45)CC3)ccc2s1 [Example 20, 5-{4-[4-(5-chloroindol-3-yl)1,2,5,6-tetrahydropyrid-1-yl]butoxy}-2-methylbenzothiazole] | – | – | < 100 | < 100
18 | Cc1nc2cc(OCCCCCN3CC=C(c4c[nH]c5ccc(Cl)cc45)CC3)ccc2s1 [Example 21, 5-{5-[4-(5-chloroindol-3-yl)-1,2,5,6-tetrahydropyrid-1-yl]pentoxy}-2-methylbenzothiazole] | – | – | < 100 | < 100
19 | Cc1nc2cc(OCCCN3CC=C(c4c[nH]c5cc(Cl)ccc45)CC3)ccc2s1 [Example 22, 5-{3-[4-(6-chloroindol-3-yl)-1,2,5,6-tetrahydropyrid-1-yl]propoxy}-2-methylbenzothiazole] | – | – | < 100 | < 100
20 | Cc1nc2cc(OCCCCN3CC=C(c4c[nH]c5cc(Cl)ccc45)CC3)ccc2s1 [Example 23, 5-{4-[4-(6-chloroindol-3-yl)1,2,5,6-tetrahydropyrid-1-yl]butoxy}-2-methylbenzothiazole] | – | – | < 100 | < 100
21 | Cc1nc2cc(OCCCCCN3CC=C(c4c[nH]c5cc(Cl)ccc45)CC3)ccc2s1 [Example 24, 5-{5-[4-(6-chloroindol-3-yl)-1,2,5,6-tetrahydropyrid-1-yl]pentoxy}-2-methylbenzothiazole] | – | – | < 100 | < 100
22 | Cc1nc2cc(OCCCN3CC=C(c4c[nH]c5cc(Br)ccc45)CC3)ccc2s1 [Example 25, 5-{3-[4-(6-bromoindol-3-yl)-1,2,5,6-tetrahydropyrid-1-yl]propoxy}-2-methylbenzothiazole] | – | – | < 100 | < 100
23 | Cc1nc2cc(OCCCCN3CC=C(c4c[nH]c5cc(Br)ccc45)CC3)ccc2s1 [Example 26, 5-{4-[4-(6-bromoindol-3-yl)1,2,5,6-tetrahydropyrid-1-yl]butoxy}-2-methylbenzothiazole] | – | – | < 100 | < 100
24 | Cc1nc2cc(OCCCCCN3CC=C(c4c[nH]c5cc(Br)ccc45)CC3)ccc2s1 [Example 27, 5-{5-[4-(6-bromoindol-3-yl)-1,2,5,6-tetrahydropyrid-1-yl]pentoxy}-2-methylbenzothiazole] | – | – | < 100 | < 100
